Data reported in patent publication US8575144B2, “Beta-lactamase inhibitory compounds” (Southern Methodist University, priority 2008, dated 2013).

Columns and labels:
Resistant P. aeruginosa = test: Synergy of inhibitors with imipenem against resistant P. aeruginosa; type: cell-based
Text: (§1) Tables 2 and 3 show the effectiveness of inhibitory compounds of the invention in killing resistant bacterial strains with imipenem, a β-lactam antibiotic.

Resistant A. baumannii = test: Synergy of inhibitors with imipenem against resistant A. baumannii; type: cell-based
Text: as §1

AmpC β-lactamase [1] = target: T1, AmpC β-lactamase (Pseudomonas aeruginosa, UniProt P24735); test: Inhibition of representative β-lactamases: AmpC P. aeruginosa; type: biochemical
T1 sequence (P24735 27-397): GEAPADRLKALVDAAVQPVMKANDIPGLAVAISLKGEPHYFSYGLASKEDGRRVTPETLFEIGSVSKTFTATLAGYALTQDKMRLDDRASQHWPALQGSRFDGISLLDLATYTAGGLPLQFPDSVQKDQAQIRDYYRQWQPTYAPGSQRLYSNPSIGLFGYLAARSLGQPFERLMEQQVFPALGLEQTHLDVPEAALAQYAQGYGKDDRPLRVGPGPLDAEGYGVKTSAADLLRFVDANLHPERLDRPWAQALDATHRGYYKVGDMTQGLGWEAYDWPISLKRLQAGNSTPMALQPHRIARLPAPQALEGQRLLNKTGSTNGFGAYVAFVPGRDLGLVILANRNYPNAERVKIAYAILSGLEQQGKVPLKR

AmpC β-lactamase [2] = target: T1, AmpC β-lactamase; test: Inhibition of representative β-lactamases: AmpC P. aeruginosa in serum; type: biochemical
TEM-1 β-lactamase = TEM-1 β-lactamase (Escherichia coli, UniProt P62593); test: Inhibition of representative β-lactamases: TEM-1; type: biochemical; details: read-out: IC50 TEM-1 E. Coli
TEM-1 β-lactamase, sequence (P62593 24-286 limits assumed): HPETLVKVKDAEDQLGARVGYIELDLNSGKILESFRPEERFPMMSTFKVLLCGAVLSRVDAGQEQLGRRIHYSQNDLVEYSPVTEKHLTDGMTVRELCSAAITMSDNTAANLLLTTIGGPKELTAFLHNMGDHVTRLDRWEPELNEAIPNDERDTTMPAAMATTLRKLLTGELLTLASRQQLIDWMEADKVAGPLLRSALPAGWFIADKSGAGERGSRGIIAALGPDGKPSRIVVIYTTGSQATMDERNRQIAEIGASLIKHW

OXA-40 β-lactamase = OXA-40 β-lactamase (Acinetobacter baumannii, UniProt Q8RLA6); type: biochemical
OXA-40 β-lactamase, sequence (Q8RLA6 22-275): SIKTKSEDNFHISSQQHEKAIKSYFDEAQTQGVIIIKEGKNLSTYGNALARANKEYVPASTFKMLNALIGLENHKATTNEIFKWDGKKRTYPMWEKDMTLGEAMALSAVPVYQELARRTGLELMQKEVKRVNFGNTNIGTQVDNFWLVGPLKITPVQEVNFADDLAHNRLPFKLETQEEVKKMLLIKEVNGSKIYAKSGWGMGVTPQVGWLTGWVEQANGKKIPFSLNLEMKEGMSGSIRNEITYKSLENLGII

AmpC β-lactamase [3] = details: read-out: IC50 AmpC A. baumannii
Text: Methods for testing the β-lactamase inhibitory bioactivity of compounds are well known in the art. For example, see T. Viswanantha, et al. (2008), “Assays for β-lactamase Activity and Inhibition,”, Methods in Molecular Medicine, 142: New Antibiotic Targets, Chapter 19, pp. 239-260, and references cited therein.

Compound | MIC (Resistant P. aeruginosa; Pseudomonas aeruginosa, imipenem alone, no inhibitor) [µg/mL] | MIC (Resistant A. baumannii; Acinetobacter baumannii, imipenem alone, no inhibitor) [µg/mL] | IC50 (AmpC β-lactamase [1]) [nM] | Inhibitor concentration with imipenem at 0.0313 MIC (Resistant P. aeruginosa; imipenem 0.625 mg/L (0.0313 MIC)) [µg/mL] | Inhibitor concentration with imipenem at 0.0625 MIC (Resistant P. aeruginosa; imipenem 1.25 mg/L (0.0625 MIC)) [µg/mL] | Inhibitor concentration with imipenem at 0.125 MIC (Resistant P. aeruginosa; imipenem 2.5 mg/L (0.125 MIC)) [µg/mL] | Inhibitor concentration with imipenem at 0.25 MIC (Resistant P. aeruginosa; imipenem 5 mg/L (0.25 MIC)) [µg/mL] | Inhibitor concentration with imipenem at 0.5 MIC (Resistant P. aeruginosa; imipenem 10 mg/L (0.5 MIC)) [µg/mL] | IC50 (AmpC β-lactamase [2]) [nM] | Inhibitor concentration with imipenem at 0.0313 MIC (Resistant A. baumannii; imipenem 8 mg/L (0.0313 MIC)) [µg/mL] | Inhibitor concentration with imipenem at 0.0625 MIC (Resistant A. baumannii; imipenem 16 mg/L (0.0625 MIC)) [µg/mL] | Inhibitor concentration with imipenem at 0.125 MIC (Resistant A. baumannii; imipenem 32 mg/L (0.125 MIC)) [µg/mL] | Inhibitor concentration with imipenem at 0.25 MIC (Resistant A. baumannii; imipenem 64 mg/L (0.25 MIC)) [µg/mL] | Inhibitor concentration with imipenem at 0.5 MIC (Resistant A. baumannii; imipenem 128 mg/L (0.5 MIC)) [µg/mL] | IC50 (TEM-1 β-lactamase) [nM] | IC50 (OXA-40 β-lactamase) [nM] | IC50 (AmpC β-lactamase [3]) [nM]
C[C@@H](O)[C@H]1C(=O)N2C(C(=O)O)=C(SCCN=CN)C[C@H]12 [Imipenem, imipenem, reference compound] | 20 | 256 |  |  |  |  |  |  |  |  |  |  |  |  |  |  | 
C[C@]1(COC(=O)Cc2ccc(O)c(O)c2)[C@H](C(=O)O)N2C(=O)/C(=C/c3ccccn3)[C@H]2S1(=O)=O [JDB/LN-1-255] |  |  | 6 | >100 | 100 | 50 | 25 | 6.25 | 82 | >100 | 100 | 50 | 25 | 6.25 | 0.03 | 11 | 4
